Among the data in patent US5932554A (priority 1997, dated 1999) are IC50 values, retold here.

This experiment has as its target cholera toxin (Vibrio cholerae serotype O1, UniProt P01556). In words: biochemical. In kind it is binding, V. cholerae.

Sequence of cholera toxin (P01556 22-124 limits assumed): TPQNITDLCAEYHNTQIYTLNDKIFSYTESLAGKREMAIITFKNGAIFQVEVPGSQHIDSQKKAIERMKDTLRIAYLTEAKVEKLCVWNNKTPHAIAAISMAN

Turning to `OC[C@H]1OC(O)[C@H](O)[C@@H](O)[C@H]1O` (stereo partly drawn) [D-galactose], the midpoint of inhibition, the IC50, lay at 30 mM.
